This passage reports IC50 results from patent publication US8175860B2, “Method of inhibiting the growth of Helicobacter pylori” (priority 2009, dated 2012).

In general, IC50 refers to the concentration needed to halve the response being measured.

The target in this assay is T1, HpDHQS (dehydroquinate synthase of H. pylori) (Helicobacter pylori, UniProt P56081, I144T).
T1 construct: His tag (inferred from the pQE30 vector and nickel-ion purification); made in house; host or cells: E. coli JM109
T1 sequence (P56081 1-343 I144T): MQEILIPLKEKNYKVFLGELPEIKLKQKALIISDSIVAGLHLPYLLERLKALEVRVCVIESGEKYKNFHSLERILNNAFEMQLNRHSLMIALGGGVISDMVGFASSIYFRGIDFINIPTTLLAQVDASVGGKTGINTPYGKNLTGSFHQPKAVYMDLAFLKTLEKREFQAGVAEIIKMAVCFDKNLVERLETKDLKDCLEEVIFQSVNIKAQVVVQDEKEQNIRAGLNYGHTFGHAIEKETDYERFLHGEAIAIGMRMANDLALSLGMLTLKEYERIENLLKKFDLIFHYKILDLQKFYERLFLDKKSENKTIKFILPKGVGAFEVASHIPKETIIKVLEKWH
Description: HpDHQS inhibition assay (thiobarbiturate assay of residual DAHP). The class given is biochemical. As to conditions: 1 μM HpDHQS, 37° C., pH 7.0. Here is the method:
The level of DAHP was determined by a thiobarbiturate assay method. All assays were conducted at 37° C. in a 200-μl solution containing 20 mM Bis-Tris propane buffer (pH 7.0), 0.5 mM DAHP, 0.02 mM cobalt chloride, 0.02 mM NAD^+ and 1 μM HpDHQS. The residual DAHP was oxidized by per-iodate to produce formylpyruvate, which then reacted with thiobarbiturate to yield a pink adduct, and this chromophore was monitored at A549 after extraction into cyclohexanone.
Compounds were prepared to 100 mM in dimethylsulfoxide (DMSO) solutions. A 5% DMSO control was included for each set of measurements. About 1 μM HpDHQS was added to the mixture containing the compound to be tested with the standard assay mixture. The test compounds were also evaluated whether they interfered the thiobarbiturate assay system in the absence of HpDHQS. The initial velocities were plotted against the inhibitor concentrations to obtain the IC50 by using the following equation A[I]=A[0]×{1−([I]/[I]+IC50)]} wherein A[I] was the enzyme activity with inhibitor concentration [I], and A[0] was the enzyme activity without the inhibitor.

As to `CC1CCc2c(sc(NC(=O)CSc3nc4ccccc4s3)c2C#N)C1` (centres unmarked) [HTS11955, 2-(1,3-benzothiazol-2-ylsulfanyl)-N-(3-cyano-6-methyl-4,5,6,7-tetrahydro-1-benzothiophen-2-yl)acetamide], the IC50 was determined as 61 µM.
The same measure for `CSc1c(C#N)c(N)nc(SCC(=O)c2cccc([N+](=O)[O-])c2)c1C#N` [RH00573, 2-amino-4-methylsulfanyl-6-[2-(3-nitrophenyl)-2-oxoethyl]sulfanylpyridine-3,5-dicarbonitrile]: 84.4 µM.
